Legend:
[1] = test system: neovascularization of Matrigel plugs; test: Matrigel plug angiogenesis assay (hemoglobin content); assay type: in vivo, C57BL/6 mice; conditions: 5 mg/kg s.c., from five days before Matrigel inoculation and 2 more weeks
Method: Matrigel plug angiogenesis assay. In vivo angiogenesis assays were performed on female C57BL/6 mice as described before. Mice were acclimated to semi-purified phytoestrogen-free AIN-76 ad libitum for 7 days prior to the study and randomly grouped (5/group). DMSO vehicle or DIM at 5 mg/kg was injected s.c. five days before Matrigel inoculation. Heparin (64 Unit/mL) and aFGF (100 ng/mL) were gently mixed with cold liquid Matrigel at 4° C. The Matrigel solution (0.3 ml) was injected into mice s.c. in the bilateral flanks. Animals were treated with DMSO control or DIM for 2 more weeks and terminated by CO2 inhalation. The gels were surgically removed and vascularization of Matrigel plugs was quantified by measuring hemoglobin content using Drabkin Reagent kit 525. DIM reduces in vivo angiogenesis. Using a rodent Matrigel plug angiogenesis assay, we next investigated whether DIM affects neovascularization in vivo. Matrigel is a urea extract of Engelbreth-Holm-Swarm (EHS) tumor, which contains laminin, collagen IV, heparan sulfate proteoglycan, and several growth factors, all of which are present in the authentic basement membrane of solid tumors. When injected subcutaneously into rodents, Matrigel forms a solid “plug” beneath the skin. The hemoglobin content in the Matrigel parallels blood vessels development in the gel, thereby allowing quantitation. […]

cyclin E = test: Western blot of G1 cell cycle components in HUVECs: cyclin E; assay type: cell-based, human; conditions: DIM treatment
Description: (§1) DIM down-regulates CDK2 and CDK6, and up-regulates CDK inhibitor p27^Kip1 in HUVECs. […] To examine this possibility, the expressions of G1 cell cycle components were investigated by Western blot analysis.

CDK2 = test: Western blot of G1 cell cycle components in HUVECs: CDK2; assay type: cell-based, human; conditions: 25 μM DIM
Description: as §1

HUVECs [2] = test: Wound migration assay; assay type: cell-based; conditions: Homo sapiens, HUVEC; 25 μM DIM, 18 h incubation; read-out: number of cells migrating across the wound, % of control
Method: Wound migration assay. Migration was assessed using an in vitro wound assay. One hundred thousands cells were seeded into two 12-well cell culture plates and cultured in EGM-MV BulletKit to confluency. A scrape was made in the center of the cell monolayers with a sterile pipette tip to create a gap of constant width. Cellular debris was removed by gently washing with PBS. The initial images of the wounds were captured under phase contrast microscopy and the wounded monolayers were incubated further for 18 h in fresh EGM-MV BulletKit medium in the presence of DMSO or DIM of various concentrations (5, 10, or 25 μM). Pictures were taken with a Nikon Coolpix990 digital camera connected to the Nikon Eclipse TS 100 microscope at a 100× magnification. To quantify the migration, photographs of the initial wounded monolayers were compared with the corresponding images of cells at the end of the incubation. […] Cells that migrated across the lines were counted. All quantification were done on full-size images with the weight of artificial lines negligible compared to the size of the cell body. At least 5 fields from each triplicate treatment were counted. […] To quantify the migration, artificial lines fitting the cutting edges were drawn on pictures of the original wounded cells and overlaid on images of cells after incubation. Cells that migrated across the lines were counted. […]

HUVECs [3] = test: Cell cycle analysis by flow cytometry; assay type: cell-based, human; conditions: 24 h
Method: DIM induces a G1 cell cycle arrest in HUVECs. To further characterize the antiproliferative activity of DIM in HUVECs, we examined the effects of this indole on cell cycle regulation. For the cell cycle studies, HUVECs treated with vehicle control or 25 μM DIM for 24 h were analyzed by flow cytometry as described above.

CDK6 = test: Western blot of G1 cell cycle components in HUVECs: CDK6; assay type: cell-based, human; conditions: 25 μM DIM
Description: as §1

[4] = Toxicity observations in MCF-7 xenograft study (feed intake, body weight, organ weights); assay type: in vivo, athymic (nu/nu) mice; conditions: 5 mg/kg s.c. five times weekly
Method: (§2) II. Antiangiogenic DIM inhibits human breast carcinoma in xenograft model. Twenty female athymic (nu/nu) mice were acclimated to semi-purified phytoestrogen-free AIN-76 ad libitum for 7 days prior to the study. They were implanted with a 60-d release 0.72 mg estradiol pellet in the subscapular region. Mice were then inoculated s.c. in the bilateral flanks with 0.1 mL Matrigel containing 3×10^6 MCF-7 human breast cancer cells and randomly grouped (10/group) to receive s.c. injections of either 5 mg/kg DIM or DMSO in a PBS vehicle, five times weekly. Feed intake, body weight were measured weekly and palpable tumor diameter were measured twice per week. Tumor volumes were calculated as: (π/6)×[length(mm)×width^2(mm)] [15]. The experiment was terminated at 34 days. All animals were killed by CO2 asphyxiation.
(§3) DIM inhibits the growth of transplanted MCF-7 human breast carcinoma cells. Since we observed an inhibition of in vivo angiogenesis by DIM in the Matrigel plug assay, we determined whether DIM could inhibit the growth of transplanted breast carcinoma cells in female athymic (nu/nu) mice. Mice were injected s.c. with MCF-7 human breast cancer cells in the bilateral flanks. Mice were randomly assigned (10 mice/group) to receive s.c. injection of either DIM at 5 mg/kg dose or vehicle control DMSO in PBS, five times weekly. Feed intake, body weight and palpable tumor diameter were measured twice per week. Feed intake (22.2±1.3 g/wk vs. 22.9±1.0 g/wk) and body weight gain (2.3±0.2 g vs. 2.4±0.2 g) were not altered by DIM administration. […] Tumor volumes were calculated as: (π/6)×[length(mm)×width^2(mm^2)].

HUVECs [5] = test: Tube formation assay on Matrigel; assay type: cell-based, human; conditions: 24 h pre-treatment, 10 μM DIM, 3-h incubation
Method: Tube formation assay. Endothelial cells plated onto a gel of basement membrane protein rapidly organize into multicellular tube-like structures [12; 13]. Twelve-well cell culture plates coated with Matrigel were ordered from BD-Discovery Labware and assay was performed according to the manufacturer's instruction. Briefly, Matrigel-coated 12-well plates were allowed to solidify at 37° C. for 1 h. Endothelial cells pre-treated with 0, 10, or 25 μM DIM for 24 h were trypsinized and 6×10^4 cells were added per well in 1 mL medium. Cell viability was determined by trypan blue exclusion stain before seeding. DIM treatments continued for the rest of the assay. Tube formation was observed periodically over time under a phase contrast microscope, and representative pictures were taken at 3 h and 24 h. In a further assay of angiogenesis, we examined the effect of DIM on HUVEC tube formation in culture. Capillary formation on Matrigel is a process that requires cell-matrix interaction. For the assay, HUVECs were pre-treated without or with 10 or 25 μM of DIM for 24 h and then seeded on a thin layer of Matrigel. Capillary tube structure formation was obvious at 3 h of incubation and was almost completed at 24 h in the control medium.

HUVECs [6] = test: Cell proliferation assay (HUVEC cell counting); assay type: cell-based, human
Method: Antiangiogenic effects of the DIM analogs are pre-screened with vascular endothelial cells proliferation assays. […] Cells were then treated by 0, 2, 5, 10, or 25 μM DIM candidate at 24, 48, and 72 h. DIM was dissolved in DMSO as 1000× stock solutions for each treatment. Cell numbers were assessed at various time points by trypsinization and counting with a Coulter Z1 cell counter, as described below in Example I below. Cell proliferation assay. To determine endothelial cell proliferation, approximately 8×10^4 HUVECs were seeded in 6-well plates and allowed to grow for 24 h. Cells were then treated by 0, 2, 5, 10, or 25 μM DIM at 24, 48, and 72 h. DIM was dissolved in DMSO as 1000× stock solutions for each treatment. Cell numbers were assessed at various time points by trypsinization and counting with a Coulter Z1 cell counter. DIM inhibits proliferation, invasion, migration and tube formation of HUVECs. […] First, DIM's effect on proliferation of human vascular endothelial cell (HUVECs) was examined. HUVECs were treated with 0, 2, 5, 10, or 25 μM DIM for 24 to 72 h. DIM inhibited HUVECs proliferation in a concentration- and time-dependent manner, with up to 70% inhibition of proliferation at 72 h treatment with 25 μM DIM.

[7] = test system: MCF-7 human breast cancer cells; test: MCF-7 human breast carcinoma xenograft in athymic mice; assay type: in vivo, athymic (nu/nu) mice; conditions: 5 mg/kg s.c. five times weekly
Method: as §2, §3

p27^Kip1 = test: Western blot of G1 cell cycle components in HUVECs: p27Kip1; assay type: cell-based, human; conditions: 25 μM DIM
Description: as §1

p21^Waf1/CiP1 = test: Western blot of G1 cell cycle components in HUVECs: p21Waf1/Cip1; assay type: cell-based, human; conditions: DIM treatment
Description: as §1

HUVECs [8] = test: Cell invasion assay (Matrigel-coated transwell Boyden chamber); assay type: cell-based, human
Method: Cell invasion assay. Invasion assays were carried out using modified transwell Boyden chamber system. Chambers were assembled using 8 μm-pore BD Falcon transwell inserts as upper chambers, and the 12-well plates as lower chambers. Cell culture inserts were coated with 10 μl/insert Matrigel. Coated inserts were left to dry overnight in a laminar flow fume hood and then rehydrated with DMEM supplemented with 0.1% BSA for 1 h at 37° C. Rehydrated Matrigel wells were washed with the same medium. HUVECs were harvested by trypsin/EDTA and resuspended in 0.1% BSA/DMEM. Medium containing 5% FBS was applied to the lower chamber as chemoattractant, then cells were seeded at 1.5×10^5 cells/insert in the presence of 0, 5, 10 or 25 μM DIM and incubated for 2 h at 37° C. and 5% CO2. At the end of the incubation, the cells in the upper chamber were removed with cotton swabs and cells that traversed the Matrigel to the lower surface of the insert were fixed with 10% formalin/PBS and stained with crystal violet in 10% formalin/PBS. Cells that migrated to the lower surface of the insert were counted under the light microscope at a magnification of 40×. Each treatment was in triplicate. The quantification of the invasive cells in the presence of DIM was expressed as the percentage of the quantity of invasive cells under control conditions (DMSO). We next conducted a cell invasion assay to examine the effect of DIM on HUVEC movement through a simulated extracellular matrix. In a modified Boyden chamber assay, the transwell inserts were coated with a thin layer of Matrigel and inserted into wells containing 5% FBS medium as a chemoattractant. As a negative control, serum-free medium containing 0.1% BSA was used in the lower chamber wells. Cells which transversed the Matrigel and migrated to the lower part of the insert were photographed and quantified. […] In response to 5% FBS, however, HUVECs traversed the Matrigel and migrated to the lower chamber. The invasion of HUVECs was decreased by DIM in a concentration-dependent manner, in which DIM at 25 μM decreased cell invasion to 52% of the control.

CDK4 = test: Western blot of G1 cell cycle components in HUVECs: CDK4; assay type: cell-based, human; conditions: DIM treatment
Description: as §1

c1ccc2c(Cc3c[nH]c4ccccc34)c[nH]c2c1 [DIM, 3,3′-Diindolylmethane]
reduction of neovascularization compared to controls (hemoglobin content) [1]: up to 76%
level of cyclin E (cyclin E): not significantly affected
CDK2 expression, % of the control (CDK2): 35%
activity at 25 µM (HUVECs [2]): 40%
cell population in G1 phase (in words) (HUVECs [3]; 5 μM DIM, asynchronous growing cells): increased the cell population in G1 phase
proportion of S phase cells (HUVECs [3]; 25 μM DIM, vehicle control 15.2±1.3): 2.4±0.9%
proportion of cells in the G1 phase (HUVECs [3]; 25 μM DIM, vehicle control 71.8±2.5%): 85.7±2.9%
CDK6 expression, % of the control (CDK6): 40%
body weight gain [4]: not altered
feed intake [4]: not altered
relative organ weights [4]: not significantly affected
capillary tube structure formation (in words) (HUVECs [5]): decreased ability to extend and differentiate into tube-like structures
inhibition of proliferation (in words) (HUVECs [6]; 5 μM DIM, 72 h): Significant inhibition of proliferation
inhibition at 25 µM (HUVECs [6]; Homo sapiens, HUVEC, 25 μM DIM, 72 h treatment): ≤ 70%
cell survival and viability (trypan blue exclusion) (HUVECs [6]; conditions of the proliferation assay, 0-25 μM, 24-72 h): not obviously affected
reduction of tumor growth ([7]; after 3 weeks (P=0.22)): 40%
final average tumor volume ([7]; day 34, control 3121±554.5 mm^3): 1125±434 mm^3
reduction of tumor growth ([7]; termination at day 34 (P<0.05)): 64%
p27Kip1 expression, fold of the control (p27^Kip1): ~3.5 fold
level of p21Waf1/Cip1 (p21^Waf1/CiP1): not significantly affected
cell invasion (in words) (HUVECs [8]; 5 μM DIM): trend of decreased cell invasion
cell invasion (in words) (HUVECs [8]; 10 μM DIM): more significant effect
cell invasion, % of the control (HUVECs [8]; 25 μM DIM, 5% FBS chemoattractant, 2 h): 52%
level of CDK4 (CDK4): not significantly affected

— patent publication US20060229355A1, “3.3'-Diindolylmethane compositions inhibit angiogenesis” (priority 2005, published 2006)
